Assay results from ChEMBL document CHEMBL1817641, “Synthesis and biological evaluation of some novel N-aryl-1,4-dihydropyridines as potential antitubercular agents” (Bioorg Med Chem Lett, 2011).
Values after ≈ are worked out from the molar mass of the structure shown.

Key:
[1] = system: Mycobacterium tuberculosis; assay: Antitubercular activity against Mycobacterium tuberculosis H37Rv at 6.25 ug/mL after 4 days by MABA assay; format: functional; conditions: 96 h
[2] = system: Mycobacterium tuberculosis; assay: Antitubercular activity against Mycobacterium tuberculosis H37Rv after 4 days by MABA assay; format: functional; conditions: 96 h
[3] = system: Vero; assay: Cytotoxicity against african green monkey Vero cells; format: cell-based; conditions: Chlorocebus sabaeus
[4] = Selectivity index, ratio of IC50 for african green monkey Vero cells to MIC for Mycobacterium tuberculosis H37Rv; format: functional

**Q.** What does the source list for `CCOC(=O)C1=C(C)N(c2ccc(C)cc2)C(C)=C(C(=O)OCC)C1c1cn(-c2ccccc2)nc1-c1ccccc1`?
**A.** inhibition at 6.25 µg/mL [1]: 48%; MIC [2]: 48 µg/mL (≈ 85.5 µM)

**Q.** Which inhibition at 6.25 µg/mL [1] does the source give for `CCOC(=O)C1=C(C)N(c2ccccc2OC)C(C)=C(C(=O)OCC)C1c1cn(-c2ccccc2)nc1-c1ccccc1` here?
**A.** 39%

**Q.** For `CC(=O)C1=C(C)N(c2ccccc2Cl)C(C)=C(C(C)=O)C1c1cn(-c2ccccc2)nc1-c1ccccc1`, which inhibition at 6.25 µg/mL [1] is on record?
**A.** 59%

**Q.** With `COc1ccccc1N1C(C)=C(C(C)=O)C(c2cn(-c3ccccc3)nc2-c2ccccc2)C(C(C)=O)=C1C` as the molecule, how does the inhibition at 6.25 µg/mL [1] read?
**A.** 25%

**Q.** For `CCOC(=O)C1=C(C)N(c2cccc(C)c2)C(C)=C(C(=O)OCC)C1c1cn(-c2ccccc2)nc1-c1ccccc1`, which inhibition at 6.25 µg/mL [1] is on record?
**A.** 98%

**Q.** And the IC50 [3]?
**A.** > 10 µg/mL

**Q.** What about the “Selectivity Index” value [4] of the same molecule?
**A.** >6.4

**Q.** And the MIC [2]?
**A.** 1.56 µg/mL (≈ 2.78 µM)

**Q.** For `CC(=O)C1=C(C)N(c2ccc(Cl)cc2)C(C)=C(C(C)=O)C1c1cn(-c2ccccc2)nc1-c1ccccc1`, which inhibition at 6.25 µg/mL [1] is on record?
**A.** 29%

**Q.** For `CCOC(=O)C1=C(C)N(c2ccc(Cl)cc2)C(C)=C(C(=O)OCC)C1c1cn(-c2ccccc2)nc1-c1ccccc1`, which inhibition at 6.25 µg/mL [1] is on record?
**A.** 74%

**Q.** Which inhibition at 6.25 µg/mL [1] does the source give for `CC(=O)C1=C(C)N(c2ccccc2)C(C)=C(C(C)=O)C1c1cn(-c2ccccc2)nc1-c1ccccc1` here?
**A.** 48%

**Q.** Which inhibition at 6.25 µg/mL [1] does the source give for `CC(=O)C1=C(C)N(c2cccc(Cl)c2)C(C)=C(C(C)=O)C1c1cn(-c2ccccc2)nc1-c1ccccc1` here?
**A.** 76%

**Q.** For `COc1cccc(N2C(C)=C(C(C)=O)C(c3cn(-c4ccccc4)nc3-c3ccccc3)C(C(C)=O)=C2C)c1`, which inhibition at 6.25 µg/mL [1] is on record?
**A.** 77%

**Q.** With `COc1ccc(N2C(C)=C(C(C)=O)C(c3cn(-c4ccccc4)nc3-c3ccccc3)C(C(C)=O)=C2C)cc1` as the molecule, how does the inhibition at 6.25 µg/mL [1] read?
**A.** 69%

**Q.** With `CCOC(=O)C1=C(C)N(c2ccccc2Cl)C(C)=C(C(=O)OCC)C1c1cn(-c2ccccc2)nc1-c1ccccc1` as the molecule, how does the inhibition at 6.25 µg/mL [1] read?
**A.** 100%

**Q.** And the IC50 [3]?
**A.** > 10 µg/mL

**Q.** And the “Selectivity Index” value [4]?
**A.** >500

**Q.** And the MIC [2]?
**A.** 0.02 µg/mL (≈ 0.0344 µM)

**Q.** What does the source list for `CC(=O)C1=C(C)N(c2cccc(C)c2)C(C)=C(C(C)=O)C1c1cn(-c2ccccc2)nc1-c1ccccc1`?
**A.** inhibition at 6.25 µg/mL [1]: 98%; IC50 [3]: > 10 µg/mL; Selectivity Index [4]: >1.6; MIC [2]: 6.25 µg/mL (≈ 12.5 µM)

**Q.** Which inhibition at 6.25 µg/mL [1] does the source give for `CCOC(=O)C1=C(C)N(c2cccc(Cl)c2)C(C)=C(C(=O)OCC)C1c1cn(-c2ccccc2)nc1-c1ccccc1` here?
**A.** 97%

**Q.** And the IC50 [3]?
**A.** 7.08 µg/mL (≈ 12.2 µM)

**Q.** And the “Selectivity Index” value [4]?
**A.** 4.5

**Q.** And the MIC [2]?
**A.** 1.56 µg/mL (≈ 2.68 µM)

**Q.** With `NNC(=O)c1ccncc1` [ISONIAZID] as the molecule, how does the MIC [2] read?
**A.** 0.03 µg/mL (≈ 0.219 µM)

**Q.** With `CCOC(=O)C1=C(C)N(c2ccccc2C)C(C)=C(C(=O)OCC)C1c1cn(-c2ccccc2)nc1-c1ccccc1` as the molecule, how does the inhibition at 6.25 µg/mL [1] read?
**A.** 95%

**Q.** What about the IC50 [3] of the same molecule?
**A.** > 10 µg/mL

**Q.** And the “Selectivity Index” value [4]?
**A.** >3.2

**Q.** What about the MIC [2] of the same molecule?
**A.** 3.13 µg/mL (≈ 5.57 µM)

**Q.** With `CCOC(=O)C1=C(C)N(c2ccccc2)C(C)=C(C(=O)OCC)C1c1cn(-c2ccccc2)nc1-c1ccccc1` as the molecule, how does the inhibition at 6.25 µg/mL [1] read?
**A.** 96%

**Q.** What about the IC50 [3] of the same molecule?
**A.** > 10 µg/mL

**Q.** And the “Selectivity Index” value [4]?
**A.** >6.4

**Q.** And the MIC [2]?
**A.** 1.56 µg/mL (≈ 2.85 µM)

**Q.** Which inhibition at 6.25 µg/mL [1] does the source give for `CCOC(=O)C1=C(C)N(c2ccc(OC)cc2)C(C)=C(C(=O)OCC)C1c1cn(-c2ccccc2)nc1-c1ccccc1` here?
**A.** 33%

**Q.** Which inhibition at 6.25 µg/mL [1] does the source give for `CCOC(=O)C1=C(C)N(c2cccc(OC)c2)C(C)=C(C(=O)OCC)C1c1cn(-c2ccccc2)nc1-c1ccccc1` here?
**A.** 55%

**Q.** Which inhibition at 6.25 µg/mL [1] does the source give for `CC(=O)C1=C(C)N(c2ccc(C)cc2)C(C)=C(C(C)=O)C1c1cn(-c2ccccc2)nc1-c1ccccc1` here?
**A.** 34%

**Q.** What does the source list for `CC(=O)C1=C(C)N(c2ccccc2C)C(C)=C(C(C)=O)C1c1cn(-c2ccccc2)nc1-c1ccccc1`?
**A.** inhibition at 6.25 µg/mL [1]: 97%; IC50 [3]: > 10 µg/mL; Selectivity Index [4]: >3.2; MIC [2]: 3.13 µg/mL (≈ 6.24 µM)
